Measurements as given in BigSolDB 2.1.

O=C(O)CCCC(=O)O
Conditions | solubility (mole fraction)
in cyclohexanone, 295.35 K | 0.17
in cyclohexanone, 299.35 K | 0.184
in cyclohexanone, 303.65 K | 0.198
in cyclohexanone, 307.75 K | 0.228
in cyclohexanone, 311.85 K | 0.251
in methanol, 287.05 K | 0.204
in methanol, 295.55 K | 0.239
in methanol, 299.15 K | 0.256
in methanol, 302.85 K | 0.274
in methanol, 306.95 K | 0.294
in methanol, 310.15 K | 0.316
in methanol, 313.45 K | 0.34
in methanol, 317.15 K | 0.37
in methanol, 321.15 K | 0.403
in methanol, 324.85 K | 0.436
in methanol, 328.95 K | 0.472
